# Columns and labels:
# [1] = system: full-thickness excisional wounds; test: Delayed wound healing in a pig model; assay type: in vivo
# Method: The animal experiments were approved by governmental authorities. Two young farm pigs (10-12 kg) were anesthetized and full-thickness excisional wounds were developed using a 6 mm biopsy punch. During the first 5 days after wounding, the wounds were stimulated with a) 0.05% R848 (resiquimod) and 50 μl human wound exudate, b) 0.05% R848 and human serum or c) human serum alone. R848 was applied in the mornings and exudate and serum 6 hours later, in 50 μl of solutions gelified by the addition of 2% HPMC. On days 6-10, wounds were treated once daily with mapracorat or vehicle (50% PG/47.5% H2O/0.5% Tween 80/2% HPMC). The wounds were clinically scored daily. The total wound score (maximum score=21) consisted of wound appearance (dry vs. moist), size, wound content, pus, crust, erythema intensity, erythema width, swelling and necrosis. Reported values are individual values for each of the 2 pigs.
# IL-8 = test: Primary human monocyte cytokine secretion assay (spontaneous IL-8); assay type: cell-based; details: 16 hours (FIG. 16B)
# Method: Primary human monocytes were prepared from peripheral blood mononuclear cells (PBMC). PBMC were isolated from buffy coats obtained from the Red Cross, Vienna, using LymphoPrep (Technoclone). 30 ml of buffy concentrate was diluted 1:2 with PBS, gently underlayered with 15 ml Lymphoprep in a 50 ml Falcon tube and centrifuged for 25 minutes at 1800 rpm at 21° C. The interphase was carefully transferred to a new Falcon tube and filled up to 50 ml with ice cold PBS. After another centrifugation step (10 minutes, 1200 rpm, 4° C.), the cell pellet was washed 3 times with PBS, resuspended in RPMI medium containing 20% FCS and 10% DMSO and frozen in liquid nitrogen. Monocytes were generated from frozen aliquots using positive selection with the CD14 Beads-Kit (Miltenyi) on an autoMACS-Sorter (Miltenyi) according to the manufacturer's instructions.
# Cells were seeded at 8×10^5/ml in 50 μl/well of a 384-well plate and combined cells with graded concentrations of test compounds. After 16 hours, the supernatants were transferred to fresh plates and frozen at −20° C. for IL-8 analysis, using a commercial ELISA kit.
compound,measurement,setting,value
Cc1ccc2c(NC[C@](O)(CC(C)(C)c3cc(F)cc4c3OCC4)C(F)(F)F)cccc2n1 [Mapracorat],total wound score,"[1]; 10 mM and 1 mM, once daily days 6-10, WE-01, WE-02 and R848 as inducers of delayed wound healing",reduced the wound score from days 6 to 12
same,healing of control wounds,[1]; control wounds in the presence of human serum (FIG. 13D),did not have any negative effect on the healing of control wounds
same,spontaneous IL-8 secretion in human monocytes,IL-8,inhibited both LPS-induced and spontaneous IL-8 secretion
